According to patent US8058243B2, “Method for treating a brain cancer with ifenprodil” (HSC Research and Development Limited Partnership, priority 2006, dated 2011):
Where a name gives a salt, the structure may show the parent alone. Read-outs that look alike come from different tables or passages of the source.

Tested on: murine neural precursor cells (neurosphere cultures)
Test: HTS of LOPAC library against secondary neurosphere cultures, MTT proliferation assay at 3 μM, day 7 (z score, P value)
Assay type: cell-based, mouse
[1] = LOPAC library screen, 3 μM, MTT, neurosphere cultures
[2] = primary LOPAC screen, 3 μM, MTT, neurosphere proliferation
[3] = yes/no: significantly inhibited neurosphere proliferation in the primary screen
[4] = LOPAC library screen at 3 μM, MTT, secondary neurosphere cultures, screened in singlets
[5] = LOPAC library screen at 3 μM, secondary neurosphere cultures, MTT
[6] = LOPAC library screen, 3 μM, MTT, secondary neurosphere cultures, day 7
[7] = LOPAC primary screen, neurosphere MTT proliferation, 3 μM, day 7
[8] = yes/no: significantly inhibited neurosphere proliferation in primary screen
[9] = yes/no: significantly inhibited neurosphere proliferation (P<0.01) in the primary screen

With `COc1cc2nc(N3CCN(C(=O)C4CCCO4)CC3)nc(N)c2cc1OC` (centres unmarked) [Terazosin hydrochloride] the Activity was “no”, the “Z Score” value [1] was −0.05722 and the Z score [2] was −0.057.
In the case of `CC(C)(C)c1ccc(C(O)CCCN2CCC(C(O)(c3ccccc3)c3ccccc3)CC2)cc1` (centres unmarked) [Terfenadine], the Activity is reported as “no”, the “Z Score” value [1] is reported as 0.7553 and the Z score [2] is reported as 0.755.
`CCCCNc1ccc(C(=O)OCCN(C)C)cc1` [Tetracaine hydrochloride] was tested, and the “Z Score” value [1] was −0.01953, the Z score [2] was −0.020 and the Activity [3] was “no”.
With `CC[N+](CC)(CC)CC.[Cl-]` [Tetraethylammonium chloride] the Activity was “no”, the “Z Score” value was 0.123 and the Z score was 0.123.
With `CCN(CC)C(=S)SSC(=S)N(CC)CC` [Tetraethylthiuram disulfide] the “Z Score” value [4] was 2.347, the Z score [2] was 2.347 and the Activity [3] was “no”.
In the case of `c1ccc2c(c1)CCCC2C1=NCCN1` (centres unmarked) [Tetrahydrozoline hydrochloride], the “Z Score” value [5] is reported as −0.4693, the Z score [2] is reported as −0.469 and the Activity [3] is reported as “no”.
For `CC(C)NP(=O)(NC(C)C)OP(=O)(NC(C)C)NC(C)C` [Tetraisopropyl pyrophosphoramide], the “Z Score” value was −1.114, the Z score [2] was −1.114 and the Activity [3] was “no”.
With `c1ccc(C2CN3CCSC3=N2)cc1` (centres unmarked) [Tetramisole hydrochloride] the “Z Score” value [4] was 2.649, the Z score [2] was 2.649 and the Activity [3] was “no”.
`C/C=C(/C)C(=O)O[C@H]1C(C)=C2[C@H]([C@@H]1OC(=O)CCCCCCC)[C@@](C)(OC(C)=O)C[C@H](OC(=O)CCC)[C@@]1(O)[C@H]2OC(=O)[C@@]1(C)O` [Thapsigargin] was tested, and the “Z Score” value [6] was −9.559, the Z score [7] was −9.559 and the Activity (yes = significantly inhibited neurosphere proliferation (P<0.01) in the primary screen) was “yes”.
For `Cn1cnc2c1c(=O)[nH]c(=O)n2C` [Theobromine], the “Z Score” value (168 h, 3 µM) was −1.392, the Z score (168 h, 3 µM) was −1.392 and the Activity [3] was “no”.
For `Cn1c(=O)c2[nH]cnc2n(C)c1=O` [Theophylline], the Activity was “no”, the “Z Score” value [1] was 0.3699 and the Z score [2] was 0.370.
In the case of `NC(=S)c1ccc[n+]([C@@H]2O[C@@H](COP(=O)([O-])OP(=O)(O)OC[C@H]3O[C@@H](n4cnc5c(N)ncnc54)C(OP(=O)([O-])O)[C@H]3O)C(O)C2O)c1.[Na+]` (some centres unmarked) [Thio-NADP sodium], the “Z Score” value is reported as 0.3661, the Z score [2] is reported as 0.366 and the Activity [3] is reported as “no”.
`C=C/C(C)=C/[C@@]1(C)SC(=O)C(C)=C1O` [Thiolactomycin] was tested, and the “Z Score” value [6] was −1.3, the Z score [7] was −1.300 and the Activity [8] was “no”.
For `S=C(NC1CCCCC1)N1CCC(c2cnc[nH]2)CC1` [Thioperamide maleate], the “Z Score” value [5] was −0.1537, the Z score [2] was −0.154 and the Activity [3] was “no”.
For `CSc1ccc2c(c1)N(CCC1CCCCN1C)c1ccccc1S2` (centres unmarked) [Thioridazine hydrochloride], the “Z Score” value (168 h, 3 µM) was 0.2356, the Z score (168 h, 3 µM) was 0.236 and the Activity [9] was “no”.
`CN1CCN(CC/C=C2/c3ccccc3Sc3ccc(S(=O)(=O)N(C)C)cc32)CC1` [Thiothixene hydrochloride] was tested, and the Activity was “no”, the “Z Score” value (168 h, 3 µM) was −1.899 and the Z score (168 h, 3 µM) was −1.899.
`CCN(CC)CCNC(=O)c1cc(S(C)(=O)=O)ccc1OC` [Tiapride hydrochloride] was tested, and the “Z Score” value [1] was 0.6889, the Z score [7] was 0.689 and the Activity [9] was “no”.
With `Cc1ccc(S(=O)(=O)NC(=O)NN2CCCCCC2)cc1` [Tolazamide] the “Z Score” value [1] was 1.431, the Z score [2] was 1.431 and the Activity [3] was “no”.
With `CCCCNC(=O)NS(=O)(=O)c1ccc(C)cc1` [Tolbutamide] the Activity was “no”, the “Z Score” value [5] was −0.3032 and the Z score [2] was −0.303.
With `CNCC[C@@H](Oc1ccccc1C)c1ccccc1` [Tomoxetine] the Activity was “no”, the “Z Score” value [1] was 0.1672 and the Z score [2] was 0.167.
`CCCCNc1c(C(=O)OCC)c(C)nc2c1cnn2CC` [Tracazolate] was tested, and the “Z Score” value [5] was −0.3151, the Z score [2] was −0.315 and the Activity [3] was “no”.
For `COc1ccc(/C=C/C(=O)Nc2ccccc2C(=O)O)cc1OC` [Tranilast], the “Z Score” value [1] was 0.1736 and the Z score [2] was 0.174.
`N[C@@H]1C[C@H]1c1ccccc1` [Tranylcypromine hydrochloride] was tested, and the “Z Score” value [6] was −1.441, the Z score [7] was −1.441 and the Activity [8] was “no”.
For `O=c1n(CCCN2CCN(c3cccc(Cl)c3)CC2)nc2ccccn12` [Trazodone hydrochloride], the “Z Score” value (168 h, 3 µM) was −2.644, the Z score (168 h, 3 µM) was −2.644 and the Activity [9] was “yes”.
`COc1cc2c(cc1OC)-c1c/c(=N\c3c(C)cc(C)cc3C)n(C)c(=O)n1CC2` [Trequinsin hydrochloride] was tested, and the “Z Score” value [5] was −0.9709, the Z score [2] was −0.971 and the Activity [3] was “no”.
